Measured values from ChEMBL document CHEMBL1201862, “PubChem BioAssay data set” (2004).
Active and inactive are the calls of the source.

Key:
[1] = target: Beta-2 adrenergic receptor (Homo sapiens, UniProt P07550); experiment: beta2AR agonists driving receptor internalization, dose response, cell-based, FAP fluorogen, flow cytometry, cherry pick 1 (AID 588763); format: functional
[2] = inhibitors of intracellular T. cruzi replication, confirmation, NIH3T3 host cells, beta-gal luminescence (AID 2044); format: functional, cell-based;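 note: intracellular parasites grown in NIH/3T3 mouse fibroblasts as host cells; luminescent beta-galactosidase reporter signal from transgenic T. cruzi replicating inside host cells; inhibitors lower the luminescence signal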
[3] = cytotoxicity toward NIH3T3 fibroblasts, dose response, counter-screen, cell-based, ATP luminescence, mouse fibroblasts (AID 2010); format: functional;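 note: cells exposed to compound for about 90 hours before reading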
[4] = NIH:OVCAR-3 ovarian cancer cell cytotoxicity, dose response, PAX8 inhibitor project, plate reader, dry powder samples (AID 743044); format: functional, cell-based
[5] = IGROV1 ovarian cancer cell cytotoxicity, dose response, PAX8 inhibitor project, plate reader, dry powder samples (AID 743043); format: functional, cell-based; conditions: IGROV-1
Paired box protein Pax-8 = Paired box protein Pax-8 (Homo sapiens, UniProt Q06710); experiment: inhibitors of PAX8-driven TPO luciferase reporter, dose response, RMG-I cells, cherry-pick (AID 687027); format: functional, cell-based;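 note: luciferase reporter driven by Pax8 target thyroperoxidase promoter measured by SteadyGlo luminescence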
[6] = cytotoxicity in OVCAR8 ovarian cancer cells, dose response, PAX8 project, cell-based, plate reader, dry powder samples (AID 743197); format: functional; conditions: OVCAR-8
[7] = target: T1, Adenosylmethionine-8-amino-7-oxononanoate aminotransferase (Mycobacterium tuberculosis, UniProt P9WQ81); experiment: Mycobacterium tuberculosis BioA enzyme inhibitor Measured in Biochemical System Using Plate Reader - 2163-02_Inhibitor_Dose_CherryPick_Activity.; format: functional, Mycobacterium tuberculosis UT205
T1 sequence (P9WQ81 whole entry): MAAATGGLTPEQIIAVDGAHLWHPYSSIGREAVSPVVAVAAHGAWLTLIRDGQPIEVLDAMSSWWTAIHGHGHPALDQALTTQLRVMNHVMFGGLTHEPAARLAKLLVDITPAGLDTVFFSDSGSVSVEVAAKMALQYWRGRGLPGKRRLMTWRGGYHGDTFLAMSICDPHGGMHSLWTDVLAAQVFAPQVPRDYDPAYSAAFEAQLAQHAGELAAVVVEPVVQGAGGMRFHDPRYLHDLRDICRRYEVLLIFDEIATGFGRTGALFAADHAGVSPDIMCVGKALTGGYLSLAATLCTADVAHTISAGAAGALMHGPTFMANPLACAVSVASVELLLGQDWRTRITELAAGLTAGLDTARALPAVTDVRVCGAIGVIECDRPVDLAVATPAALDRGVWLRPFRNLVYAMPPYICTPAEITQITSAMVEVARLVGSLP

[8] = target: T2, DNA repair protein RAD52 homolog (Homo sapiens, UniProt P43351); format: functional, biochemical
T2 sequence (P43351 whole entry): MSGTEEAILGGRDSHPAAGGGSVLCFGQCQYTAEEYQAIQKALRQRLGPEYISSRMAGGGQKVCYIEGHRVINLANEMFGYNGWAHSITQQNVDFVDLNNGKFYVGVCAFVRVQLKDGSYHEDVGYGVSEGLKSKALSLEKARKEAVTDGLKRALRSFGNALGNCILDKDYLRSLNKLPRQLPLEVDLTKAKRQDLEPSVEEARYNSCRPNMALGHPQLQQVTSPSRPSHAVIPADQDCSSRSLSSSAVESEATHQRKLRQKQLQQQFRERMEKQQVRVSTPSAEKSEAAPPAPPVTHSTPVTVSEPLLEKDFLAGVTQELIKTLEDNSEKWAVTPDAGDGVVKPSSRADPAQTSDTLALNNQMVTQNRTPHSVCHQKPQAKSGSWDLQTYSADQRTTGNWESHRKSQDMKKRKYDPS

[9] = target: T3, Voltage-gated N-type calcium channel alpha-1B subunit/Amyloid beta A4 precursor protein-binding family A member 1 (Homo sapiens, UniProt Q00975+Q02410); format: protein assay
[10] = target: T3, Voltage-gated N-type calcium channel alpha-1B subunit/Amyloid beta A4 precursor protein-binding family A member 1; format: protein assay; remark: listed apart in the source
Cytochrome P450 3A4 = Cytochrome P450 3A4 (Homo sapiens, UniProt P08684); conditions: Potency;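 note: confirmatory qHTS run detecting inhibitors and substrates of CYP3A4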
[11] = target: Voltage-gated inwardly rectifying potassium channel KCNH2 (Homo sapiens, UniProt Q12809); conditions: Potency;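 note: confirmatory quantitative high-throughput screen measuring inhibition of hERG channel activity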
[12] = A cytotoxicity screen of small molecule inhibitors of the PhoP region in Salmonella typhi identified in the primary screen. [Related pubchem assays: 1850, 1864, 1985 ]; format: functional
Nonstructural protein 1 = Nonstructural protein 1 (Influenza A virus, UniProt Q194T2); format: functional, Influenza A virus (A/California/07/2009(H1N1))
[13] = target: T4, Histone-lysine N-methyltransferase NSD2 (Homo sapiens, UniProt O96028); format: biochemical
T4 sequence (O96028 whole entry): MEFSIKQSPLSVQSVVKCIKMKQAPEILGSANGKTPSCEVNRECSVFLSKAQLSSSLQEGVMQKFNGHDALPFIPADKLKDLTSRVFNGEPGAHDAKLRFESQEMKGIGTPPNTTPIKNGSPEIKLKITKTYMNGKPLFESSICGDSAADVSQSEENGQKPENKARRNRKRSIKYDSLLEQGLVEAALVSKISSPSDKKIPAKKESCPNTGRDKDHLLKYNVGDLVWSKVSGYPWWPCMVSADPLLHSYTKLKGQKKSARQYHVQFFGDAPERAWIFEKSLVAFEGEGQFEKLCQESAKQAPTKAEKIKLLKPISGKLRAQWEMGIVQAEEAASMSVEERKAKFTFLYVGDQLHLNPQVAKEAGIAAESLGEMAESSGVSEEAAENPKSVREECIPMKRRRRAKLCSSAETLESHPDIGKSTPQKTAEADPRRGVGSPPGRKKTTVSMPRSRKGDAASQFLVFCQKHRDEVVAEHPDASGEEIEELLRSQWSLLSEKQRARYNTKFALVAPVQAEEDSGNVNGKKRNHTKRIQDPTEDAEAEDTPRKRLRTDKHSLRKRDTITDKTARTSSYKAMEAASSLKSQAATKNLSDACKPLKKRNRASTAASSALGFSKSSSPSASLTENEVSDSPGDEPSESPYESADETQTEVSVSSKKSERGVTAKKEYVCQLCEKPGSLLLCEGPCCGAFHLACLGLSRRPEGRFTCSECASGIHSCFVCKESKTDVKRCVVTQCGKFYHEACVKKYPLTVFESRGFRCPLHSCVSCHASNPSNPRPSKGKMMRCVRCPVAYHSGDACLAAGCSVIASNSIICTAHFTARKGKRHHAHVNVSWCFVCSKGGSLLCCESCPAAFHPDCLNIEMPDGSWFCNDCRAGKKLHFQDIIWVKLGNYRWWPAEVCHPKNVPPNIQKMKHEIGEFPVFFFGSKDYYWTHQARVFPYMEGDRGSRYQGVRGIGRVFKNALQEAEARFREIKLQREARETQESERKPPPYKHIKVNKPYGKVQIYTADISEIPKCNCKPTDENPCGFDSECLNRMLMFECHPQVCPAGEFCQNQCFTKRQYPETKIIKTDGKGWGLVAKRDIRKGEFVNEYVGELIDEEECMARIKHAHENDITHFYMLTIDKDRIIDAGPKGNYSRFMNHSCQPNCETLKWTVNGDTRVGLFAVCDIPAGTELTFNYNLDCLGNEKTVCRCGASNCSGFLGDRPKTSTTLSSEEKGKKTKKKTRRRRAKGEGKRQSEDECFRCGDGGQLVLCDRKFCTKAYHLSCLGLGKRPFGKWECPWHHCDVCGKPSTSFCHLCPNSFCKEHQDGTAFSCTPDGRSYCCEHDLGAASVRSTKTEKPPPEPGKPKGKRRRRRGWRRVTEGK

[14] = NIH-3T3 fibroblast cytotoxicity, dose response, cytotoxicity control, cell-based, fluorescence, Alamar Blue, secondary assay (AID 2327); format: functional;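 note: NIH-3T3 mouse fibroblasts cultured with fluconazole at 8 µg/mL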
[15] = C. albicans growth with fluconazole, confirmation, fluorescence, retest (AID 2467); format: functional, cell-based
HEK293 [16] = experiment: NOD2 signaling inhibitors in MDP-stimulated cells, cell-based, uHTS, luminescence (AID 2001); format: functional; conditions: Homo sapiens
HEK293 [17] = experiment: cells; format: functional, cell-based; conditions: Homo sapiens
HEK293 [18] = experiment: cells; format: functional, cell-based; conditions: Homo sapiens; remark: listed apart in the source
HEK293 [19] = experiment: NOD1 signaling inhibitors, primary screen, cell-based, luminescence, uHTS (AID 1578); format: functional; conditions: Homo sapiens
[20] = target: Dual specificity tyrosine-phosphorylation-regulated kinase 1A (Rattus norvegicus, UniProt Q63470); format: biochemical, Homo sapiens

Sequence of Voltage-gated inwardly rectifying potassium channel KCNH2 (Q12809 whole entry): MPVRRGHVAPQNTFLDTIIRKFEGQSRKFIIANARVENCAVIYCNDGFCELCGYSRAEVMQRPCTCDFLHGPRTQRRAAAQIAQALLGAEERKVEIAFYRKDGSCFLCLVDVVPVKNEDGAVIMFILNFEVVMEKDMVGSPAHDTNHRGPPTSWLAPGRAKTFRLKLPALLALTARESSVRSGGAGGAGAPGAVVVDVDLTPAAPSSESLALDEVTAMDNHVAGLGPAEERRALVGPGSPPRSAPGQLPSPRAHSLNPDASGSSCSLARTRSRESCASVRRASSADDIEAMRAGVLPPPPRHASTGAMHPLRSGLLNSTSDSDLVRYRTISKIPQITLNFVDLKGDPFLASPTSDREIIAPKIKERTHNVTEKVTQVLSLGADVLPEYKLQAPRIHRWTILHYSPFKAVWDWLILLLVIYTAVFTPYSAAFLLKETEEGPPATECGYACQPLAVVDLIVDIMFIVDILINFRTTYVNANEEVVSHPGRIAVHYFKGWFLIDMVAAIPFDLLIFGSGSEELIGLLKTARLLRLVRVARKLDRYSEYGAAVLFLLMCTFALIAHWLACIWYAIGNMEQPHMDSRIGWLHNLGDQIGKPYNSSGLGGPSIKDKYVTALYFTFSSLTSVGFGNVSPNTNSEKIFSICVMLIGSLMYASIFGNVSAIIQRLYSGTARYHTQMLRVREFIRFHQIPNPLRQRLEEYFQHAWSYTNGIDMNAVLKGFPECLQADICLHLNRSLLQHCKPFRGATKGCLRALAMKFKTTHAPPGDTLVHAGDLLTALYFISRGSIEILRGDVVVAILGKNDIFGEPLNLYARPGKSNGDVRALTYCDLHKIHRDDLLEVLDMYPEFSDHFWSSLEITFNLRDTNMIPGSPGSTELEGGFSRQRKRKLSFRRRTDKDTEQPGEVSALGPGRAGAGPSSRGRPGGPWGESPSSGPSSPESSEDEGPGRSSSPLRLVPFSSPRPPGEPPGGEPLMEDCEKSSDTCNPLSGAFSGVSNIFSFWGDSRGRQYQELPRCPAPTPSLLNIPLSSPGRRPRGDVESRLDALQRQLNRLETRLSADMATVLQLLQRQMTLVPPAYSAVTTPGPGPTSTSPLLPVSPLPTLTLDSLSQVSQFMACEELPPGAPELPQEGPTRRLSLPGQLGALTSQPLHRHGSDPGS
Sequence of Cytochrome P450 3A4 (P08684 whole entry): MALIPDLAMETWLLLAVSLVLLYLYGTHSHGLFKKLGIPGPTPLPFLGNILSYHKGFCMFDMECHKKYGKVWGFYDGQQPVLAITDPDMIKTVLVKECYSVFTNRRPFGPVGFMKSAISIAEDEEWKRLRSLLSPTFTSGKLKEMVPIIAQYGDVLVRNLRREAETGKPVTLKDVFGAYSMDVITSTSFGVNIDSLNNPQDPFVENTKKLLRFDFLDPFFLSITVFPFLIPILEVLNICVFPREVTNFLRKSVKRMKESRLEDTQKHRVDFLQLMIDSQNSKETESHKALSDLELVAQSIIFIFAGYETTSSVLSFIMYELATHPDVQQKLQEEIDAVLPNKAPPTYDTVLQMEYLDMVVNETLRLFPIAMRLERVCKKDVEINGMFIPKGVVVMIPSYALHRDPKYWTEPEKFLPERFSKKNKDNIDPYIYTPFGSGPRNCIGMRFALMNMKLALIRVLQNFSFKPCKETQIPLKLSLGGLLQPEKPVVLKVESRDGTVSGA
Sequence of Paired box protein Pax-8 (Q06710 whole entry): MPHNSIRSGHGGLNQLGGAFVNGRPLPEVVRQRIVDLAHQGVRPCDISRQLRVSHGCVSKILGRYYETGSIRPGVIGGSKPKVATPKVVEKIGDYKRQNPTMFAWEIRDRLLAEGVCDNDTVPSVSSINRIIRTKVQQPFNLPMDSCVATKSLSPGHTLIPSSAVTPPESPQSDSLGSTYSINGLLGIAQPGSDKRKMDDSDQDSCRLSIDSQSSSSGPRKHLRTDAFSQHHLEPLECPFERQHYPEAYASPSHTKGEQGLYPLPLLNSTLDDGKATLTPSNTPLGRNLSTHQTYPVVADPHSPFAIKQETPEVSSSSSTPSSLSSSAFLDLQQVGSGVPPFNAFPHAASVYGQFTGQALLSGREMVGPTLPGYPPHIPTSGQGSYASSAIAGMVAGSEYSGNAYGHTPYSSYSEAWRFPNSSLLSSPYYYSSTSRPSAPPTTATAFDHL
Sequence of Beta-2 adrenergic receptor (P07550 whole entry): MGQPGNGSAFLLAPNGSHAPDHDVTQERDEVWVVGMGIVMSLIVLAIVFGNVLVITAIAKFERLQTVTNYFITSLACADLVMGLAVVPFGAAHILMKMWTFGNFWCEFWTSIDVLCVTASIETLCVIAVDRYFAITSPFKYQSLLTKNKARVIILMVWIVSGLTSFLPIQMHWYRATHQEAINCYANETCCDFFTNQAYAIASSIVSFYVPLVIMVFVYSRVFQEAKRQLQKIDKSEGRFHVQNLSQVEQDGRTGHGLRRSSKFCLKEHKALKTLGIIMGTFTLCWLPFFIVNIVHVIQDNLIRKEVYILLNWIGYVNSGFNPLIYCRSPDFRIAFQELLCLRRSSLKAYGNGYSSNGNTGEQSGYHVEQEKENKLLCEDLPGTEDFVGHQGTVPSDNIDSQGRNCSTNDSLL
Sequence of Nonstructural protein 1 (Q194T2 whole entry): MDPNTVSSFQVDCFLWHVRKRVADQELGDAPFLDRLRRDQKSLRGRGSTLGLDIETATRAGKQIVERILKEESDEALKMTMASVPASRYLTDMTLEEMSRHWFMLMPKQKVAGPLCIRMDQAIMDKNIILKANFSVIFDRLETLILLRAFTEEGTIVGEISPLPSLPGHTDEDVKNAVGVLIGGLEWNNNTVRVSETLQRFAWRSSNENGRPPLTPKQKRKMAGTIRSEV

COC(=O)C1=C(c2cccc(OCc3ccccc3)c2)C[C@@H]2CC[C@H]1N2C(=O)NCc1cccc(F)c1
EC50 [1]: 4.8 µM (active)

COc1ccc(C2CC(=O)N(CCCN(C)CCc3ccc(OC)c(OC)c3)C2)cc1 (stereo not given)
EC50 (cells): 0.02 µM (active) | EC50 [2]: < 0.1 µM (active) | EC50 [3]: > 60 µM (not active)

CCOc1ccc(NC(=O)CNC(=O)c2nn(-c3ccc(OC)c(OC)c3)c(=O)c3ccccc23)cc1
EC50 [1]: 6.57 µM (active)

CC(C)CC#Cc1ccc2c(c1)O[C@@H](CN(C)S(=O)(=O)c1ccc(F)cc1)[C@@H](C)CN([C@@H](C)CO)S2(=O)=O
AC50 [4]: 25.9 µM (active) | AC50 [5]: 51.5 µM (active) | AC50 (Paired box protein Pax-8): 12.9 µM (active) | AC50 [6]: > 70 µM (inactive)

CCC(=O)N1CC[C@@H]2[C@H]1c1cc(-c3cccc(F)c3)ccc1N(C)[C@H]2CO
AC50 [7]: 5.53 µM (active)

COc1cc2c3cc1Oc1cc(ccc1O)C[C@@H]1c4c(cc(OC)c(O)c4Oc4cccc(c4)C[C@@H]3N(C)CC2)CC[N+]1(C)C
AC50 [8]: 8.2 µM (active) | AC50 [7]: 15.4 µM (active)

Cc1ccc(-c2cc(C(=O)N3CC(C)CC(C)C3)c3ccccc3n2)o1 (stereo not given)
IC50 [9]: 11.3 µM (active) | IC50 [10]: 5.42 µM (active)

O=C(Nc1cccnc1)c1ccc(N2CCCC2)c([N+](=O)[O-])c1
AC50 [7]: 1.19 µM (active)

CCCCCOC(=O)c1ccccc1C(=O)OCCCCC
AC50 (Cytochrome P450 3A4): 12.6 µM (inconclusive) | AC50 [11]: 39.8 µM (inconclusive)

COc1ccccc1CNC(=O)Cn1c(=O)oc2cc(S(=O)(=O)N3CCCC3)ccc21
EC50 [12]: > 50 µM (active)

CN(C)C(=O)C[C@@H]1C[C@@H]2c3cc(NC(=O)c4cccnc4)ccc3O[C@@H]2[C@@H](CO)O1
AC50 [7]: 12.7 µM (active)

COC(=O)c1c(C)[nH]c(C)c1C(=O)c1ccccc1Cc1ccccc1
AC50 [11]: 35.5 µM (inconclusive)

COC(=O)C1CCN(C2=C(NS(=O)(=O)c3ccc(Cl)cc3)C(=O)c3ccccc3C2=O)CC1
IC50 (Nonstructural protein 1): 27.4 µM (active) | AC50 [13]: 13.1 µM (active)

O=C(Nc1cccc(F)c1)NC1CCCCC1
EC50 [12]: > 50 µM (active)

Cc1ccccc1Cn1c(=O)n(CCCC(=O)NCc2ccco2)c(=O)c2ccccc21
EC50 [12]: > 50 µM (active)

CC(=O)Nc1ccc(C(=O)CCl)cc1
AC50 [11]: 28.2 µM (inconclusive)

C/C(CC(C)(C)C1CCCCC1)=N\NC(N)=S
EC50 [14]: 2.86 µM (inconclusive) | EC50 (cells): 0.133 µM (active) | EC50 [15]: 2.9 µM (active) | EC50 [2]: < 0.1 µM (active)

Cc1ccc(NC(=O)CC2=NC(=O)C(CC(=O)Nc3ccccc3F)S2)cc1 (stereo not given)
AC50 [13]: 19.1 µM (active)

CC(C)c1ccc(S(=O)(=O)c2cc3cc(Br)ccc3oc2=O)cc1
IC50 (HEK293 [16]): 3.73 µM (active) | IC50 (HEK293 [17]): 10.5 µM (active) | IC50 (HEK293 [18]): 3.29 µM (active) | EC50 (HEK293 [19]): > 20 µM (inactive)

Cc1c(CN(C)C)c2c(n1Cc1ccccc1)C(=O)c1ccccc1-2
AC50 [13]: 8.45 µM (active)

Cc1cc([N+](=O)[O-])ccc1N
AC50 (Cytochrome P450 3A4): 39.8 µM (inconclusive) | AC50 [11]: 17.8 µM (inconclusive)

C[C@@H]1CN([C@H](C)CO)C(=O)c2cc(NS(=O)(=O)c3ccc(F)cc3)ccc2O[C@@H](C)CCCCO[C@H]1CN(C)Cc1ccc(C(F)(F)F)cc1
AC50 [4]: 7.81 µM (active) | AC50 [5]: 55.1 µM (active) | AC50 (Paired box protein Pax-8): 5.54 µM (active) | AC50 [6]: 33.9 µM (active)

C[C@H]1CCCCO[C@H](CN(C)C(=O)Nc2cccc3ccccc23)[C@@H](C)CN([C@@H](C)CO)C(=O)c2cc(NS(=O)(=O)c3ccc(F)cc3)ccc2O1
AC50 [5]: 33.8 µM (active) | AC50 (Paired box protein Pax-8): 5.88 µM (active) | AC50 [6]: > 70 µM (inactive)

COc1ccc2cc(C(=O)N/N=C/c3cc(OC)c(OC)c(OC)c3)[nH]c2c1
AC50 [20]: 3.83 µM (active)

CCOc1cc(CN2CCCC(CNC(=O)c3ccc(F)cc3)C2)ccc1OC (stereo not given)
EC50 (cells): 0.206 µM (active) | EC50 [2]: < 0.1 µM (active) | EC50 [3]: > 30 µM (not active)

CC(C)=CCc1c2c(c(O)c3c(=O)c(O)c(-c4ccccc4)oc13)C=CC(C)(C)O2 [SERICETIN]
AC50 (Cytochrome P450 3A4): 15.8 µM (inconclusive)

CC1(C)CC23C(=O)CCC(O)C2(C)CCC13 (stereo not given) [3-NOR-3-OXOPANASINSAN-6-OL]
AC50 (Cytochrome P450 3A4): 15.8 µM (inconclusive)
